For test [1], the target named is T1, Cathepsin D (Cat D) (Homo sapiens, UniProt P07339).
T1 construct: made in house; host or cells: CHO cells
In words: In vitro enzymatic Cathepsin D (Cat D) FRET assay. Format: biochemical. The conditions noted are these: average IC50; first procedure; read-out: CatD IC50. In outline: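 Fluorescence (500 nm excitation, 580 nm emission) was measured after Tris quench of a 1 h cleavage of 20 nM quenched peptide substrate. Before that, 9 nM CHO-expressed human Cat D sat with compound for 1 h at pH 3.5 (0.05 M citrate, 5 mM CHAPS, 10% DMSO final).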

The test system of test [2] is Aβ40 in conditioned medium of cells stably expressing Amyloid Precursor Protein (APP). In words: In vitro BACE cell-based assay (HEK cell assay, Aβ40 sandwich ELISA). The conditions noted are these: Homo sapiens, HEK293; average IC50; read-out: BACE1 cell assay IC50. In a few lines: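 IC50 was derived from percent-of-control Aβ40 against concentration, with Aβ40 quantified by time-resolved fluorescence ELISA (pAb40/6E10-biotin, 4 °C incubations). Supernatants were sampled after 24 h of compound exposure (10 points, starting 100 or 10 μM, 0.1% DMSO) of cells stably expressing APP.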
(In general: ELISA stands for enzyme-linked immunosorbent assay.)

For test [3], the target named is BACE1 (Homo sapiens, UniProt P56817). In words: In vitro enzymatic BACE FRET assay. It counts as biochemical. The settings on record: average IC50; read-out: BACE1 Enzyme assay IC50. In outline: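 Fluorescence (excitation 488 nm, […]) from cleavage of quenched peptide substrate (50 nM), reaction run 1 h after 1 h enzyme–inhibitor pre-incubation, then neutralised with Tris. Conditions: 0.2 nM enzyme, pH 4.2 acetate 0.05 M, 10% DMSO final, 100 uM genapol.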

Each structure is given as a SMILES string. Where only a bound is given, the exact number is not on record here.

T1 sequence (P07339 65-412, species assumed): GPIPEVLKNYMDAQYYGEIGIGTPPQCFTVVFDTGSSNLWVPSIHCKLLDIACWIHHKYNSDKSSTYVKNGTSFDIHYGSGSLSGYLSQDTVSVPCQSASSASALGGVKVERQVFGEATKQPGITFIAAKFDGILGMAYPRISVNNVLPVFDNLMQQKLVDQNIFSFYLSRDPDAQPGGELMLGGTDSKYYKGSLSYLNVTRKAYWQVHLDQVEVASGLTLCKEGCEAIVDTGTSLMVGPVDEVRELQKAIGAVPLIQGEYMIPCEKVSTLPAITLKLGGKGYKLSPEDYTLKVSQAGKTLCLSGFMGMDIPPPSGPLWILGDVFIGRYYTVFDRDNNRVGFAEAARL
BACE1, sequence (P56817 46-501, species assumed): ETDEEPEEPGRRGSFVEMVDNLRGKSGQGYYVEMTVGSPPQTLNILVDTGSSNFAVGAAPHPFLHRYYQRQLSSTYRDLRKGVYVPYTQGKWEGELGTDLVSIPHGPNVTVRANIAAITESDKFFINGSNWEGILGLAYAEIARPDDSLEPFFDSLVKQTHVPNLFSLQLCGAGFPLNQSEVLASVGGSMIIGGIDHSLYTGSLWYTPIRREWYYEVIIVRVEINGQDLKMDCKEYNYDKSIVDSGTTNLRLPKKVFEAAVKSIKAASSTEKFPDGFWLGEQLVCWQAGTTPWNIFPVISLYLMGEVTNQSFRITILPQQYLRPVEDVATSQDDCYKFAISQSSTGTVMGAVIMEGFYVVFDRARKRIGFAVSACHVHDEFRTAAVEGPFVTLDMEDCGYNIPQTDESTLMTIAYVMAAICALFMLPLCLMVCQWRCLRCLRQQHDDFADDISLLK

What is called IC50 is the midpoint of a concentration-inhibition curve. For `C[C@]12CC[C@H]([C@@](C)(c3cc(Nc4nccc5nc(OCC6CC6)cnc45)ccc3F)N=C1N)S2(=O)=O` [Example 67, N-(3-((1R,2R,5S)-4-amino-2,5-dimethyl-8,8-dioxido-8-thia-3-azabicyclo[3.2.1]oct-3-en-2-yl)-4-fluorophenyl)-2-(cyclopropylmethoxy)pyrido[3,4-b]pyrazin-5-amine], the IC50 turned out to be 99.3 µM in test [1], 0.522 µM in test [2] and 0.156 µM in test [3].

With `C[C@]1(c2cc(Nc3nccc4nc(OCC5CC5)cnc34)ccc2F)N=C(N)[C@@]2(C)CC[C@@H]1S2(=O)=O` [Example 68, N-(3-((1S,2R,5R)-4-amino-2,5-dimethyl-8,8-dioxido-8-thia-3-azabicyclo[3.2.1]oct-3-en-2-yl)-4-fluorophenyl)-2-(cyclopropylmethoxy)pyrido[3,4-b]pyrazin-5-amine], the IC50 in test [1] was more than 400 µM; in test [2], 0.033 µM; in test [3] it was 0.005 µM.

As to `Cc1cc(Cl)cnc1C(=O)Nc1ccc(F)c([C@@]2(CF)N=C(N)[C@]3(C)CC[C@H]2S3(=O)=O)c1` [Example 72, N-(3-((1R,2S,5S)-4-amino-2-(fluoromethyl)-5-methyl-8,8-dioxido-8-thia-3-azabicyclo[3.2.1]oct-3-en-2-yl)-4-fluorophenyl)-5-chloro-3-methyl-2-pyridinecarboxamide], the half-maximal inhibitory concentration (IC50) in test [1] is more than 400 µM; in test [2], 0.111 µM; in test [3], 0.024 µM.

For the molecule `COc1cnc(C(=O)Nc2ccc(F)c([C@@]3(CF)N=C(N)[C@]4(C)CC[C@H]3S4(=O)=O)c2)cn1` [Example 75, N-(3-((1R,2S,5S)-4-amino-2-(fluoromethyl)-5-methyl-8,8-dioxido-8-thia-3-azabicyclo[3.2.1]oct-3-en-2-yl)-4-fluorophenyl)-5-methoxy-2-pyrazinecarboxamide], the figures for the IC50 in test [1], in test [2] and in test [3] were more than 400 µM, 0.095 µM and 0.097 µM, respectively.

Consider `COc1cnc2c(Nc3ccc(F)c([C@@]4(C)N=C(N)[C@]5(C)CC[C@H]4S5(=O)=O)c3)nccc2n1` [Example 81, N-(3-((1R,2R,5S)-4-amino-2,5-dimethyl-8,8-dioxido-8-thia-3-azabicyclo[3.2.1]oct-3-en-2-yl)-4-fluorophenyl)-2-methoxypyrido[3,4-b]pyrazin-5-amine], for which the figures for the concentration for half-maximal inhibition (IC50) in test [1], in test [2] and in test [3] were more than 348 µM, 0.062 µM and 0.225 µM, respectively.

On to `C[C@]1(c2cc(Nc3nccc4nc(C(F)(F)F)cnc34)ccc2F)N=C(N)[C@@]2(C)CC[C@@H]1S2(=O)=O` [Example 86, N-(3-((1S,2R,5R)-4-amino-2,5-dimethyl-8,8-dioxido-8-thia-3-azabicyclo[3.2.1]oct-3-en-2-yl)-4-fluorophenyl)-2-(trifluoromethyl)pyrido[3,4-b]pyrazin-5-amine], for which the values for the IC50 in test [1], in test [2] and in test [3] were more than 44.4 µM, 0.067 µM and 0.023 µM, respectively.

With `C[C@]12CC[C@H]([C@@](C)(c3cc(Nc4nccc5nc(C(F)(F)F)cnc45)ccc3F)N=C1N)S2(=O)=O` [Example 87, N-(3-((1R,2R,5S)-4-amino-2,5-dimethyl-8,8-dioxido-8-thia-3-azabicyclo[3.2.1]oct-3-en-2-yl)-4-fluorophenyl)-2-(trifluoromethyl)pyrido[3,4-b]pyrazin-5-amine], the 50% inhibitory concentration (IC50) in test [1] was more than 44.4 µM; in test [2] it was 0.313 µM; in test [3], 0.084 µM.

Consider `COCc1ccc(C(=O)Nc2ccc(F)c([C@@]3(C)N=C(N)[C@@]4(C)CC[C@@H]3S4(=O)=O)c2)nc1` [Example 90, N-(3-((1S,2R,5R)-4-amino-2,5-dimethyl-8,8-dioxido-8-thia-3-azabicyclo[3.2.1]oct-3-en-2-yl)-4-fluorophenyl)-5-(methoxymethyl)-2-pyridinecarboxamide], for which the half-maximal inhibitory concentration (IC50) in test [1] is 3420 µM; in test [2], 0.02 µM; in test [3], 0.057 µM.

Consider `COCc1ccc(C(=O)Nc2ccc(F)c([C@@]3(C)N=C(N)[C@]4(C)CC[C@H]3S4(=O)=O)c2)nc1` [Example 91, N-(3-((1R,2R,5S)-4-amino-2,5-dimethyl-8,8-dioxido-8-thia-3-azabicyclo[3.2.1]oct-3-en-2-yl)-4-fluorophenyl)-5-(methoxymethyl)-2-pyridinecarboxamide], for which the concentration for half-maximal inhibition (IC50) in test [1] is 3260 µM; in test [2], 0.046 µM; in test [3] it was 0.255 µM.

For the molecule `Cc1cc(C(F)(F)F)cnc1C(=O)Nc1ccc(F)c([C@@]2(C)N=C(N)[C@]3(CF)CC[C@H]2S3(=O)=O)c1` [Example 93, N-(3-((1R,2R,5S)-4-amino-5-(fluoromethyl)-2-methyl-8,8-dioxido-8-thia-3-azabicyclo[3.2.1]oct-3-en-2-yl)-4-fluorophenyl)-3-methyl-5-(trifluoromethyl)-2-pyridinecarboxamide], the concentration for half-maximal inhibition (IC50) is 1590 µM in test [1], 0.035 µM in test [2] and 0.04 µM in test [3].

As to `CC#CCOc1cnc(C(=O)Nc2ccc(F)c([C@@]3(C)N=C(N)[C@@]4(CF)CC[C@@H]3S4(=O)=O)c2)cn1` [Example 94, N-(3-((1S,2R,5R)-4-amino-5-(fluoromethyl)-2-methyl-8,8-dioxido-8-thia-3-azabicyclo[3.2.1]oct-3-en-2-yl)-4-fluorophenyl)-5-(2-butyn-1-yloxy)-2-pyrazinecarboxamide], the IC50 was determined as 257 µM in test [1], 0.0002 µM in test [2] and 0.0005 µM in test [3].

`CC#CCOc1cnc(C(=O)Nc2ccc(F)c([C@@]3(C)N=C(N)[C@]4(CF)CC[C@H]3S4(=O)=O)c2)cn1` [Example 95, N-(3-((1R,2R,5S)-4-amino-5-(fluoromethyl)-2-methyl-8,8-dioxido-8-thia-3-azabicyclo[3.2.1]oct-3-en-2-yl)-4-fluorophenyl)-5-(2-butyn-1-yloxy)-2-pyrazinecarboxamide]: the IC50 in test [1] amounted to 603 µM; in test [2] it was 0.003 µM; in test [3], 0.007 µM.

Consider `COc1cnc2c(Nc3ccc(F)c([C@@]4(C)N=C(N)[C@@]5(CF)CC[C@@H]4S5(=O)=O)c3)ncc(F)c2c1` [Example 99, N-(3-((1S,2R,5R)-4-amino-5-(fluoromethyl)-2-methyl-8,8-dioxido-8-thia-3-azabicyclo[3.2.1]oct-3-en-2-yl)-4-fluorophenyl)-5-fluoro-3-methoxy-1,7-naphthyridin-8-amine], for which the IC50 in test [1] worked out at 317 µM; in test [2] it was 0.028 µM; in test [3], 0.006 µM.

In the case of `CCc1ccc(C(=O)Nc2ccc(F)c([C@@]3(C)N=C(N)[C@@]4(CF)CC[C@@H]3S4(=O)=O)c2)nc1` [Example 101, N-(3-((1S,2R,5R)-4-amino-5-(fluoromethyl)-2-methyl-8,8-dioxido-8-thia-3-azabicyclo[3.2.1]oct-3-en-2-yl)-4-fluorophenyl)-5-ethyl-2-pyridinecarboxamide], the concentration for half-maximal inhibition (IC50) worked out at 1850 µM in test [1], 0.012 µM in test [2] and 0.026 µM in test [3].

Consider `C[C@]1(c2cc(NC(=O)c3ncc(C(F)(F)F)cc3Cl)ccc2F)N=C(N)[C@@]2(CF)CC[C@@H]1S2(=O)=O` [Example 108, N-(3-((1S,2R,5R)-4-amino-5-(fluoromethyl)-2-methyl-8,8-dioxido-8-thia-3-azabicyclo[3.2.1]oct-3-en-2-yl)-4-fluorophenyl)-3-chloro-5-(trifluoromethyl)-2-pyridinecarboxamide], for which the IC50 is more than 400 µM in test [1], 0.007 µM in test [2] and 0.008 µM in test [3].

For the origin of these results see patent US9096615B2, “Bridged bicyclic amino thiazine dioxide compounds as inhibitors of beta-secretase and methods of use thereof” (AMGEN INC., priority 2013, dated 2015).
